Measurements: US20200369626A1 (Washington University, priority 2019, published 2020)

Biological target: T1, S1PR2 (Homo sapiens, UniProt O95136)
T1 construct: purchased
Assay: competitive [^32P]S1P binding assay on cell membranes, S1PR2
Details: IC50 S1PR2, Table 5
Description: The test compounds were dissolved in DMSO and diluted into test samples with increasing concentrations with assay buffer. Commercial cell membranes expressing recombinant human S1PR were diluted with assay buffer to make a 20-40 μg/mL of solution. […] The plate was incubated for 60 min at room temperature with shaking and terminated by collecting the membranes onto 96-well glass fiber (GF/B) filtration plates (Millipore, Billerica, Mass.). Each filter was washed with 200 μL of assay buffer for a total of five washes. […] The IC50 values were fitted from GraphPad Prism 6 using one site Nonlinear Regression.

T1 sequence (O95136 whole entry): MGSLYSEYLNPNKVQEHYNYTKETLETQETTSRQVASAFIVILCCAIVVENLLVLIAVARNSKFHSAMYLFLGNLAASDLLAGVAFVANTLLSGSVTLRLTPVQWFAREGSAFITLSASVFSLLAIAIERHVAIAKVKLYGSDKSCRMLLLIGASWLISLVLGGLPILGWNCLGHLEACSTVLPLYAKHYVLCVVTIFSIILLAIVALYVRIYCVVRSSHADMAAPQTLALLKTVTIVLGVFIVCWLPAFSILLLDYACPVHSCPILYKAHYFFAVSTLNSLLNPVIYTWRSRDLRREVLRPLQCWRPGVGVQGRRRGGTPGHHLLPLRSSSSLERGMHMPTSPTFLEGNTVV

Row | SMILES | IC50 [nM]
1 | CNC(=O)c1ccc(Oc2cc(NC(=O)N3CCC(=O)CC3)cc(C(F)(F)F)c2)cc1 [TZ51-020] | > 1000
2 | CNC(=O)c1ccc(Oc2cc(NC(=O)N3CCC4(CC3)OCCO4)cc(C(F)(F)F)c2)cc1 [TZ51-022] | > 1000

Same assay, conditions: Table 5; read-out: IC50 S1PR2

Row | SMILES | IC50 [nM]
3 | CCC(CC)CC1(O)CCN(C(=O)Nc2cc(Oc3ccc(C(=O)NC)cc3)c3c(c2)oc2ccc(F)cc23)CC1 [TZ51-011] | 472 ± 244
4 | CCC(CC)CC1(O)CCN(C(=O)Nc2cc(Oc3ccc(C(=O)NC)cc3)cc(C(F)(F)F)c2)CC1 [TZ51-018] | > 1000
5 | CNC(=O)c1ccc(Oc2cc(NC(=O)N3CCOCC3)cc(C(F)(F)F)c2)cc1 [TZ51-019] | > 1000
6 | CNC(=O)c1ccc(Oc2cc(NC(=O)N3CCC(O)CC3)cc(C(F)(F)F)c2)cc1 [TZ51-041] | > 1000
7 | CNC(=O)c1ccc(Oc2cc(NC(=O)N3CCC(O)(C(C)C)CC3)cc(C(F)(F)F)c2)cc1 [TZ51-044] | > 1000
8 | CC(C)C1(O)CCN(C(=O)Nc2cc(Oc3ccc(S(C)(=O)=O)cc3)cc(C(F)(F)F)c2)CC1 [TZ51-045] | > 1000
9 | CCC1(O)CCN(C(=O)Nc2cc(Oc3ccc(C(=O)NC)cc3)cc(C(F)(F)F)c2)CC1 [TZ51-046] | > 1000
10 | CCC1(O)CCN(C(=O)Nc2cc(Oc3ccc(S(C)(=O)=O)cc3)cc(C(F)(F)F)c2)CC1 [TZ51-047] | > 1000
11 | CNC(=O)c1ccc(Oc2cc(NC(=O)N3CCC(C)(O)CC3)cc(C(F)(F)F)c2)cc1 [TZ51-057] | > 1000
12 | CC1(O)CCN(C(=O)Nc2cc(Oc3ccc(S(C)(=O)=O)cc3)cc(C(F)(F)F)c2)CC1 [TZ51-058] | > 1000
13 | COc1ccc(Oc2cc(NC(=O)N3CCC(O)(C(C)C)CC3)cc(C(F)(F)F)c2)cc1 [TZ51-059] | > 1000
14 | CC(C)C1(O)CCN(C(=O)Nc2cc(Oc3ccncc3)cc(C(F)(F)F)c2)CC1 [TZ51-061] | > 1000
15 | CC(C)CC1(O)CCN(C(=O)Nc2cc(Oc3ccc(C(=O)O)cc3)cc(C(F)(F)F)c2)CC1 [TZ51-073] | > 1000
16 | CC(C)CC1(O)CCN(C(=O)Nc2cc(Oc3ccc(C(=O)N(C)C)cc3)cc(C(F)(F)F)c2)CC1 [TZ51-095] | > 1000
17 | CC(C)CC1(O)CCN(C(=O)Nc2cc(Oc3ccc(C(N)=O)cc3)cc(C(F)(F)F)c2)CC1 [TZ51-096] | > 1000
18 | CNC(=O)c1ccc(Oc2cc(NC(=O)N3CC(O)(CC(C)C)C3)cc(C(F)(F)F)c2)cc1 [TZ51-097] | > 1000
19 | CNC(=O)c1ccc(Oc2cc(NC(=O)N3CCC(O)(CC(C)C)CC3)cc(C(F)(F)F)c2)cc1 [TZ51-108] | > 1000
20 | CNC(=O)c1ccc(Oc2cc(NC(=O)N3CC(N4CCN(C)CC4)C3)cc(C(F)(F)F)c2)cc1 [TZ51-112] | > 1000
21 | CNC(=O)c1ccc(Sc2cc(NC(=O)N3CCC(O)(CC(C)C)CC3)cc(C(F)(F)F)c2)cc1 [TZ51-121] | 421 ± 90
22 | CCC(CC)CC1(O)CCN(C(=O)Nc2cc(OCCCF)cc(Oc3ccc(C(=O)NC)cc3)c2)CC1 [TZ51-133] | > 1000
23 | CCC(CC)CC1(O)CCN(C(=O)Nc2cc(OCCCF)cc(Oc3ccc(F)cc3)c2)CC1 [TZ51-139] | > 1000
24 | CCC(CC)CC1(O)CCN(C(=O)Nc2cc(OCCF)cc(Oc3ccc(F)cc3)c2)CC1 [TZ51-149] | > 1000
25 | CCC(CC)CC1(O)CCN(C(=O)Nc2nc(Oc3ccc(F)cc3)nc(Oc3ccc(F)cc3)n2)CC1 [TZ51-150] | > 1000
26 | CCC(CC)CC1(O)CCN(C(=O)Nc2nc(Oc3ccc(F)cc3)cc(Oc3ccc(F)cc3)n2)CC1 [TZ57-007] | > 1000
27 | CCC(CC)CC1(O)CCN(C(=O)Nc2cc(Oc3ccc(F)cc3)cc(N3CCN(C)CC3)c2)CC1 [TZ57-013] | > 1000
28 | CCC(CC)CC1(O)CCN(C(=O)Nc2cc(Oc3ccc(F)cc3)cc(-n3cccn3)c2)CC1 [TZ57-016] | > 1000
29 | CC(C)CC1(O)CCN(C(=O)Nc2cc(Oc3ccc(S(C)(=O)=O)cc3)cc(Oc3ccc(F)nc3)c2)CC1 [TZ57-040] | 211 ± 32
30 | CCC(CC)CC1(O)CCN(C(=O)Nc2cc(Oc3ccc(S(C)(=O)=O)cc3)cc(Oc3ccc(F)nc3)c2)CC1 [TZ57-041] | 198 ± 45

Same assay, conditions: [^32P]S1P competition, IC50 ± SD, Table 1 (2a-l, 4a-h); read-out: IC50 (binding potency toward S1PR2)

Row | SMILES | IC50 [nM]
31 | COc1cccc(NC(=O)Cn2c(=O)c3ccccc3n(CC(=O)Nc3cc(Cl)c(OC)cc3OC)c2=O)c1 [Compound 2b] | 39.1 ± 7
32 | COc1cc(OC)c(NC(=O)Cn2c(=O)n(CC(=O)NCCc3cccnc3)c(=O)c3ccccc32)cc1Cl [Compound 2f] | 58.7 ± 9
33 | COc1cc(OC)c(NC(=O)Cn2c(=O)n(CC(=O)Nc3cc(Cl)nc(Cl)c3)c(=O)c3ccccc32)cc1Cl [Compound 2g] | > 1000
34 | COc1cc(OC)c(NC(=O)Cn2c(=O)n(CC(=O)NCCOCCO)c(=O)c3ccccc32)cc1Cl [Compound 2i] | 91.4 ± 17.6
35 | CNC(=O)Cn1c(=O)c2ccccc2n(CC(=O)Nc2cc(Cl)c(OC)cc2OC)c1=O [Compound 2k] | 376 ± 91
36 | COc1cc(OC)c(NC(=O)Cn2c(=O)n(CC(=O)N(C)C)c(=O)c3ccccc32)cc1Cl [Compound 2l] | 175 ± 13

Same assay, conditions: [^32P]S1P competition, IC50 ± SD, second Table 1; read-out: S2PR2 IC50

Row | SMILES | IC50 [nM]
37 | CCC(CC)CC1(O)CCN(C(=O)Nc2cc(OCCF)cc(Oc3ccc(F)cc3)c2)CC1 [Compound 11a, 4-(2-Ethylbutyl)-N-(3-(2-fluoroethoxy)-5-(4-fluorophenoxy)phenyl)-4-hydroxypiperidine-1-carboxamide] | > 1000
38 | CCC(CC)CC1(O)CCN(C(=O)Nc2cc(OCCCF)cc(Oc3ccc(F)cc3)c2)CC1 [Compound 11b, 4-(2-Ethylbutyl)-N-(3-(4-fluorophenoxy)-5-(3-fluoropropoxy)phenyl)-4-hydroxypiperidine-1-carboxamide] | > 1000
39 | CCC(CC)CC1(O)CCN(C(=O)Nc2cc(Oc3ccc(F)cc3)cc(N3CCN(C)CC3)c2)CC1 [Compound 17a, 4-(2-Ethylbutyl)-N-(3-(4-fluorophenoxy)-5-(4-methylpiperazin-1-yl)phenyl)-4-hydroxypiperidine-1-carboxamide] | > 1000
40 | CCC(CC)CC1(O)CCN(C(=O)Nc2cc(Oc3ccc(F)cc3)cc(-n3cccn3)c2)CC1 [Compound 17b, 4-(2-Ethylbutyl)-N-(3-(4-fluorophenoxy)-5-(1H-pyrazol-1-yl)phenyl)-4-hydroxypiperidine-1-carboxamide] | > 1000
41 | CCC(CC)CC1(O)CCN(C(=O)Nc2cc(Oc3ccc(C(=O)NC)cc3)cc(C(F)(F)F)c2)CC1 [Compound 21c, 4-(2-Ethylbutyl)-4-hydroxy-N-(3-(4-(methylcarbamoyl)-phenoxy)-5 (trifluoromethyl)phenyl)piperidine-1-carboxamide] | 278
42 | CNC(=O)c1ccc(Oc2cc(NC(=O)N3CCC(C)(O)CC3)cc(C(F)(F)F)c2)cc1 [Compound 25a, 4-Hydroxy-4-methyl-N-(3-(4-(methylcarbamoyl)phenoxy)-5-(trifluoromethyl)phenyl)piperidine-1-carboxamide] | > 1000
43 | CC1(O)CCN(C(=O)Nc2cc(Oc3ccc(S(C)(=O)=O)cc3)cc(C(F)(F)F)c2)CC1 [Compound 25b, 4-Hydroxy-4-methyl-N-(3-(4-(methylsulfonyl)phenoxy)-5-(trifluoromethyl)phenyl)piperidine-1-carboxamide] | > 1000
44 | CCC1(O)CCN(C(=O)Nc2cc(Oc3ccc(C(=O)NC)cc3)cc(C(F)(F)F)c2)CC1 [Compound 25c, 4-Ethyl-4-hydroxy-N-(3-(4-(methylcarbamoyl)phenoxy)-5-(trifluoromethyl)phenyl)piperidine-1-carboxamide] | > 1000
45 | CCC1(O)CCN(C(=O)Nc2cc(Oc3ccc(S(C)(=O)=O)cc3)cc(C(F)(F)F)c2)CC1 [Compound 25d, 4-Ethyl-4-hydroxy-N-(3-(4-(methylsulfonyl)phenoxy)-5-(trifluoromethyl)phenyl)piperidine-1-carboxamide] | > 1000
46 | CNC(=O)c1ccc(Oc2cc(NC(=O)N3CCC(O)(C(C)C)CC3)cc(C(F)(F)F)c2)cc1 [Compound 25e, 4-Hydroxy-4-isopropyl-N-(3-(4-(methylcarbamoyl)phenoxy)-5-(trifluoromethyl)phenyl)piperidine-1-carboxamide] | > 1000
47 | CC(C)C1(O)CCN(C(=O)Nc2cc(Oc3ccc(S(C)(=O)=O)cc3)cc(C(F)(F)F)c2)CC1 [Compound 25f, 4-Hydroxy-4-isopropyl-N-(3-(4-(methylsulfonyl)phenoxy)-5-(trifluoromethyl)phenyl)piperidine-1-carboxamide] | > 1000
48 | CNC(=O)c1ccc(Oc2cc(NC(=O)N3CCC(O)(CC(C)C)CC3)cc(C(F)(F)F)c2)cc1 [Compound 25g, 4-Hydroxy-4-isobutyl-N-(3-(4-(methylcarbamoyl)phenoxy)-5-(trifluoromethyl)phenyl)piperidine-1-carboxamide] | 359
49 | CC(C)CC1(O)CCN(C(=O)Nc2cc(Oc3ccc(S(C)(=O)=O)cc3)cc(C(F)(F)F)c2)CC1 [Compound 25h, 4-Hydroxy-4-isobutyl-N-(3-(4-(methylsulfonyl)phenoxy)-5-(trifluoromethyl)phenyl)piperidine-1-carboxamide] | 296
50 | CNC(=O)c1ccc(Oc2cc(NC(=O)N3CC(O)(CC(C)C)C3)cc(C(F)(F)F)c2)cc1 [Compound 25i, 3-Hydroxy-3-isobutyl-N-(3-(4-(methylcarbamoyl)phenoxy)-5-(trifluoromethyl)phenyl)azetidine-1-carboxamide] | > 1000

Same assay, conditions: [^32P]S1P competition; read-out: IC50 value, S1PR2 binding

Row | SMILES | IC50 [nM]
51 | COc1cc(OC)c(NC(=O)Cn2c(=O)n(CC(=O)Nc3ccc(O)cc3)c(=O)c3ccccc32)cc1Cl [Compound 2e] | 2.6 ± 0.3
52 | CCC(CC)CC1(O)CCN(C(=O)Nc2cc(OCCF)cc(Oc3ccc(F)cc3)c2)CC1 [Compound 11a, 4-(2-Ethylbutyl)-N-(3-(2-fluoroethoxy)-5-(4-fluorophenoxy)phenyl)-4-hydroxypiperidine-1-carboxamide] | > 1000
53 | CCC(CC)CC1(O)CCN(C(=O)Nc2cc(OCCCF)cc(Oc3ccc(F)cc3)c2)CC1 [Compound 11b, 4-(2-Ethylbutyl)-N-(3-(4-fluorophenoxy)-5-(3-fluoropropoxy)phenyl)-4-hydroxypiperidine-1-carboxamide] | > 1000
54 | CN1CCN(c2cc(Oc3ccc(F)cc3)cc([N+](=O)[O-])c2)CC1 [Compound 15a, 1-(3-(4-Fluorophenoxy)-5-nitrophenyl)-4-methylpiperazine] | > 1000
55 | O=[N+]([O-])c1cc(Oc2ccc(F)cc2)cc(-n2cccn2)c1 [Compound 15b, 1-(3-(4-Fluorophenoxy)-5-nitrophenyl)-1H-pyrazole] | > 1000
56 | CCC(CC)CC1(O)CCN(C(=O)Nc2cc(Oc3ccc(S(C)(=O)=O)cc3)cc(C(F)(F)F)c2)CC1 [Compound 21f, 4-(2-Ethylbutyl)-4-hydroxy-N-(3-(4-(methylsulfonyl)phenoxy)-5-(trifluoromethyl)phenyl)piperidine-1-carboxamide] | 270
57 | CNC(=O)c1ccc(Oc2cc(NC(=O)N3CC(O)(CC(C)C)C3)cc(C(F)(F)F)c2)cc1 [Compound 25i, 3-Hydroxy-3-isobutyl-N-(3-(4-(methylcarbamoyl)phenoxy)-5-(trifluoromethyl)phenyl)azetidine-1-carboxamide] | > 1000
